From patent publication US10130642B2, “Neprilysin inhibitors” (THERAVANCE BIOPHARMA R&D IP, LLC, priority 2011, dated 2018) come the findings set out here.

The target of the first assay is human NEP (Homo sapiens (Human), UniProt P08473). Put plainly: In vitro enzyme inhibition assay, inhibitor potencies at human NEP.
human NEP, sequence (P08473 52-750): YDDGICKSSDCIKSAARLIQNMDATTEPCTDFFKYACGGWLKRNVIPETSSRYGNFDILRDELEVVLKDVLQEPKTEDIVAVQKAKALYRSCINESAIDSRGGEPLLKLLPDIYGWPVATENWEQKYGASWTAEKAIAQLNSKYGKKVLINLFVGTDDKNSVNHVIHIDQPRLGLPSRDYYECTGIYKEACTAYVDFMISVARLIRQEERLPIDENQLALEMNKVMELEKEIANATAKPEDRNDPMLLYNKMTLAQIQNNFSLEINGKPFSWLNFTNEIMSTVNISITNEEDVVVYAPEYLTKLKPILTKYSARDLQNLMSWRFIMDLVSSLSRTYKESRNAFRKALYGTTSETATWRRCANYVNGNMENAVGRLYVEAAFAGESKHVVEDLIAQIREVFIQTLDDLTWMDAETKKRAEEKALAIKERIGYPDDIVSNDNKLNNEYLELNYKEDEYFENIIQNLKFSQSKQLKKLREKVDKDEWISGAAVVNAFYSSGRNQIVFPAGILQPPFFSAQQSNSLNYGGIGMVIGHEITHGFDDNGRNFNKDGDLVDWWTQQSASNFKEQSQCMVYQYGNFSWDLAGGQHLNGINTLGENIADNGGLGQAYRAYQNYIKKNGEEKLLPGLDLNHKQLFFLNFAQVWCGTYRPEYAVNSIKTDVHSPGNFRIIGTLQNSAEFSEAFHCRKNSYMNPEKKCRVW
Details: not given
A word on the Ki: it is the dissociation constant of the complex between target and ligand, obtained from inhibition or displacement. As to `O=C(NC(Cc1ccc(-c2ccccc2)cc1)C[C@@H](CO)C(=O)O)c1cnc2nn[nH]c2c1` (stereo partly drawn) [Example 4-43, (S)-5-Biphenyl-4-yl-2-hydroxymethyl-4-[(1H-[1,2,3]triazolo[4,5-b]pyridine-6-carbonyl)-amino]-pentanoic acid], the Ki is 1.26 to 10 nM.
Regarding `O=C(N[C@H](Cc1ccc(-c2ccccc2)cc1)C[C@@H](CO)C(=O)O)c1nc(Cl)n[nH]1` [Example 2A, (2S,4S)-5-Biphenyl-4-yl-4-[(5-chloro-2H-[1,2,4]-triazole-3-carbonyl)-amino]-2-hydroxymethyl-pentanoic acid], the Ki is 1.26 to 10 nM.
`O=C(N[C@H](Cc1ccc(-c2ccccc2)cc1)C[C@@H](CO)C(=O)O)c1c[nH]c(O)n1` [Example 4-31, (2S,4S)-5-Biphenyl-4-yl-4-[(2-hydroxy-1H-imidazole-4-carbonyl)-amino]-2-hydroxymethyl-pentanoic acid] showed a Ki of 12.6 to 100 nM.
For `C[C@@](CO)(C[C@@H](Cc1ccc(-c2ccccc2)cc1)NC(=O)c1cn(Cc2ccccc2)nn1)C(=O)O` [Example 6-6, (2S,4R)-4-[(1-Benzyl-1H-[1,2,3]triazole-4-carbonyl)-amino]-5-biphenyl-4-yl-2-hydroxymethyl-2-methyl-pentanoic acid], the Ki was in the range of 12.6 to 100 nM.
Turning to `C[C@@](CO)(C[C@@H](Cc1ccc(-c2ccccc2F)cc1)NC(=O)c1c[nH]c(=O)o1)C(=O)O` [Example 8-6, (2S,4R)-5-(2′-Fluoro-biphenyl-4-yl)-2-hydroxymethyl-2-methyl-4-[(2-oxo-2,3-dihydro-oxazole-5-carbonyl)-amino]-pentanoic acid], the Ki was ≤ 1 nM.
With `O=C(N[C@H](Cc1ccc(-c2ccccc2F)cc1)C[C@@H](CO)C(=O)O)c1nc(Cl)n[nH]1` [Example 4-16, (2S,4S)-4-[(5-Chloro-2H-[1,2,4]triazole-3-carbonyl)-amino]-5-(2′-fluorobiphenyl-4-yl)-2-hydroxymethyl-pentanoic acid], the Ki was ≤ 1 nM.
On the same count and under the same terms, the same measure for `O=C(N[C@H](Cc1ccc(-c2cccc(F)c2)cc1)C[C@@H](CO)C(=O)O)c1cnn[nH]1` [Example 4-3, (2S,4S)-5-(3′-Fluorobiphenyl-4-yl)-2-hydroxymethyl-4-[(3H-[1,2,3]triazole-4-carbonyl)-amino]-pentanoic acid]: ≤ 1 nM; for `CCCCc1cc(C(=O)N[C@H](Cc2ccc(-c3ccccc3)cc2)C[C@@H](CO)C(=O)O)[nH]n1` [Example 4-28, (2S,4S)-5-Biphenyl-4-yl-4-[(5-butyl-2H-pyrazole-3-carbonyl)-amino]-2-hydroxymethyl-pentanoic acid]: ≤ 1 nM.
As to `O=C(N[C@H](Cc1ccc(-c2ccccc2)cc1)C[C@@H](CO)C(=O)O)c1cnc(O)nc1` [Example 4-47, (2S,4S)-5-Biphenyl-4-yl-2-hydroxymethyl-4-[(2-hydroxy-pyrimidine-5-carbonyl)-amino]-pentanoic acid], the Ki is ≤ 1 nM.
`Cc1n[nH]c(C(=O)N[C@H](Cc2ccc(-c3ccccc3)cc2)C[C@@H](CO)C(=O)O)n1` [Example 4-13, (2S,4S)-5-Biphenyl-4-yl-2-hydroxymethyl-4-[(5-methyl-2H-[1,2,4]triazole-3-carbonyl)-amino]-pentanoic acid] came in with a Ki of 12.6 to 100 nM.
The same measure, in the same setting: next, `O=C(N[C@H](Cc1ccc(-c2ccccc2)cc1)C[C@@H](CO)C(=O)O)c1cc(O)no1` [Example 4-45, (2S,4S)-5-Biphenyl-4-yl-4-[(3-hydroxy-isoxazole-5-carbonyl)-amino]-2-hydroxymethyl-pentanoic acid]: ≤ 1 nM.
As to `O=C(N[C@H](Cc1ccc(-c2cccc(Cl)c2)cc1)C[C@@H](CO)C(=O)O)c1ccc2nnn(O)c2c1` [Example 4-34, (2S,4S)-5-(3′-Chloro-biphenyl-4-yl)-4-[(3-hydroxy-3H-benzotriazole-5-carbonyl)-amino]-2-hydroxymethyl-pentanoic acid], the Ki is ≤ 1 nM.
On the same count and under the same terms, the same measure for `O=C(N[C@H](Cc1ccc(-c2cccc(Cl)c2)cc1)C[C@@H](CO)C(=O)O)c1c[nH]nn1` [Example 4-9, (2S,4S)-5-(3′-Chloro-biphenyl-4-yl)-2-hydroxymethyl-4-[(1H-[1,2,3]triazole-4-carbonyl)-amino]-pentanoic acid]: ≤ 1 nM; for `O=C(N[C@H](Cc1ccc(-c2ccccc2)cc1)C[C@@H](CO)C(=O)O)c1cc(O)n[nH]1` [Example 4-17, (2S,4S)-5-Biphenyl-4-yl-2-hydroxymethyl-4-[(5-hydroxy-2H-pyrazole-3-carbonyl)-amino]-pentanoic acid]: ≤ 1 nM; for `CN(C)C(=O)c1cc(C(=O)N[C@H](Cc2ccc(-c3ccccc3)cc2)C[C@@H](CO)C(=O)O)[nH]n1` [Example 4-21, (2S,4S)-5-Biphenyl-4-yl-4-[(5-dimethylcarbamoyl-2H-pyrazole-3-carbonyl)-amino]-2-hydroxymethyl-pentanoic acid]: 1.26 to 10 nM.
Regarding `O=C(N[C@H](Cc1ccc(-c2ccccc2)cc1)C[C@@H](CO)C(=O)O)c1cc(C(=O)N2CCCC2)n[nH]1` [Example 4-25, (2S,4S)-5-Biphenyl-4-yl-2-hydroxymethyl-4-{[5-(pyrrolidine-1-carbonyl)-2H-pyrazole-3-carbonyl]-amino}-pentanoic acid], the Ki was ≤ 1 nM.
The same measure, in the same setting: the same measure for `O=C(N[C@H](Cc1ccc(-c2ccccc2F)cc1)C[C@@H](CO)C(=O)O)c1cnn[nH]1` [Example 4-2, (2S,4S)-5-(2′-Fluorobiphenyl-4-yl)-2-hydroxymethyl-4-[(3H-[1,2,3]triazole-4-carbonyl)-amino]-pentanoic acid]: ≤ 1 nM.
Still for that read-out and setting: the same measure for `C[C@@](CO)(C[C@@H](Cc1ccc(-c2ccccc2)cc1)NC(=O)c1nc(O)n[nH]1)C(=O)O` [Example 6-2, (2S,4R)-5-Biphenyl-4-yl-2-hydroxymethyl-4-[(5-hydroxy-2H-[1,2,4]triazole-3-carbonyl)-amino]-2-methyl-pentanoic acid]: 12.6 to 100 nM; for `CC(C)(c1ccc(-c2ccccc2)cc1)[C@H](C[C@@H](CO)C(=O)O)NC(=O)c1cn(O)nn1` [Example 10-1, (2S,4S)-5-Biphenyl-4-yl-2-hydroxymethyl-4-[(1-hydroxy-1H-[1,2,3]triazole-4-carbonyl)-amino]-5-methyl-hexanoic acid]: ≤ 1 nM.
The same measure, in the same setting: the same measure for `CN(C)C(=O)c1cc(C(=O)N[C@H](Cc2ccc(-c3ccccc3)cc2)C[C@H](CO)C(=O)O)[nH]n1` [Example 4-20, (2R,4S)-5-Biphenyl-4-yl-4-[(5-dimethylcarbamoyl-2H-pyrazole-3-carbonyl)-amino]-2-hydroxymethyl-pentanoic acid]: 12.6 to 100 nM.
As for `CC(C)(c1ccc(-c2ccccc2)cc1)[C@H](C[C@@H](CO)C(=O)O)NC(=O)c1cc(O)no1` [Example 9, (2S,4S)-5-Biphenyl-4-yl-4-[(3-hydroxy-isoxazole-5-carbonyl)-amino]-2-hydroxymethyl-5-methyl-hexanoic Acid], the Ki is ≤ 1 nM.
Still for that read-out and setting: the same measure for `CC(=O)c1cc(C(=O)N[C@H](Cc2ccc(-c3ccccc3)cc2)C[C@@](C)(CO)C(=O)O)[nH]n1` [Example 6-16, (2S,4R)-4-[(5-Acetyl-2H-pyrazole-3-carbonyl)-amino]-5-biphenyl-4-yl-2-hydroxymethyl-2-methyl-pentanoic acid]: 12.6 to 100 nM; for `O=C(N[C@H](Cc1ccc(-c2ccccc2)cc1)C[C@@H](CO)C(=O)O)c1cc(C(=O)N2CCC2)n[nH]1` [Example 4-24, (2S,4S)-4-{[5-(Azetidine-1-carbonyl)-2H-pyrazole-3-carbonyl]-amino}-5-biphenyl-4-yl-2-hydroxymethyl-pentanoic acid]: ≤ 1 nM; for `O=C(N[C@H](Cc1ccc(-c2ccccc2)cc1)C[C@@H](CO)C(=O)O)c1cc(-c2ccccc2Cl)n[nH]1` [Example 4-27, (2S,4S)-5-Biphenyl-4-yl-4-{[5-(2-chloro-phenyl)-2H-pyrazole-3-carbonyl]-amino}-2-hydroxymethyl-pentanoic acid]: ≤ 1 nM.
On the same count and under the same terms, next, `O=C(N[C@H](Cc1ccc(-c2cccc(F)c2)cc1)C[C@@H](CO)C(=O)O)c1cc(-c2ccccn2)n[nH]1` [Example 4-30, (2S,4S)-5-(3′-Fluorobiphenyl-4-yl)-2-hydroxymethyl-4-[(5-pyridin-2-yl-2H-pyrazole-3-carbonyl)-amino]-pentanoic acid]: ≤ 1 nM; `O=C(N[C@H](Cc1ccc(-c2ccccc2)cc1)C[C@@H](CO)C(=O)O)c1nc(O)n[nH]1` [Example 4-14, (2S,4S)-5-Biphenyl-4-yl-2-hydroxymethyl-4-[(5-hydroxy-2H-[1,2,4]triazole-3-carbonyl)-amino]-pentanoic acid]: ≤ 1 nM; `CC(C)(c1ccc(-c2ccccc2)cc1)[C@H](C[C@@H](CO)C(=O)O)NC(=O)c1cnn[nH]1` [Example 10-2, (2S,4S)-5-Biphenyl-4-yl-2-hydroxymethyl-5-methyl-4-[(3H-[1,2,3]triazole-4-carbonyl)-amino]-hexanoic acid]: ≤ 1 nM.
Still for that read-out and setting: the same measure for `C[C@@](CO)(C[C@@H](Cc1ccc(-c2ccccc2F)cc1)NC(=O)c1cnn[nH]1)C(=O)O` [Example 8-2, (2S,4R)-5-(2′-Fluorobiphenyl-4-yl)-2-hydroxymethyl-2-methyl-4-[(3H-[1,2,3]triazole-4-carbonyl)-amino]-pentanoic acid]: ≤ 1 nM.

Staying with this assay, now noted: pKi values at human NEP; recombinant human NEP, fluorogenic peptide substrate, 37° C.
Broadly, the pKi is −log10 of the Ki, conventionally taken in molar units. `O=C(N[C@H](Cc1ccc(-c2cccc(F)c2)cc1)C[C@@H](CO)C(=O)O)c1nc(Cl)n[nH]1` [Example 3B, (2S,4S)-4-[(5-Chloro-2H-[1,2,4]triazole-3-carbonyl)amino]-5-(3′-fluorobiphenyl-4-yl)-2-hydroxymethyl-pentanoic acid]: the pKi is ≥9.0.
Still for that read-out and setting: next, `C[C@@](CO)(C[C@@H](Cc1ccc(-c2cccc(F)c2)cc1)NC(=O)c1cc(C(=O)O)n[nH]1)C(=O)O` [Example 7, 5-[(1R,3S)-3-Carboxy-1-(3′-fluorobiphenyl-4-ylmethyl)-4-hydroxy-3-methyl-butylcarbamoyl]-1H-pyrazole-3-carboxylic Acid]: ≥9.0; `O=C(N[C@H](Cc1ccc(-c2ccccc2)cc1)C[C@@H](CO)C(=O)O)c1cnn[nH]1` [Example 1B, (2S,4S)-5-Biphenyl-4-yl-2-hydroxymethyl-4-[(3H-[1,2,3]triazole-4-carbonyl)-amino]-pentanoic acid]: ≥9.0.
